# Activity calls are given as the source filed them. The calls are words filed in the database; no cut-off is given here. Residues, ends and D or L forms follow the SMILES beside them. *: point of attachment. X1 = CC1(C)CC(C(=O)*)CC(C)(C)N1[O]
# Experiments:
# [1] = system: Rattus norvegicus; experiment: Antithrombotic activity in Wistar rat model assessed as reduction of wet thrombus weight at 5 umol/kg after 15 mins; format: functional
# [2] = system: Platelet; experiment: Antiplatelet activity against ADP-induced platelet aggregation in rabbit plasma at 100 nM for 120 mins by aggregometeric analysis; format: functional; details: Oryctolagus cuniculus
# [3] = system: Platelet; experiment: Antiplatelet activity against PAF-induced platelet aggregation in rabbit plasma at 100 nM for 120 mins by aggregometeric analysis; format: functional; details: Oryctolagus cuniculus
# [4] = system: Aorta; experiment: Antioxidant activity in rat thoracic aortic strips assessed as free radical scavenging activity by measuring reversal of acetylcholine-induced relaxation; format: functional, tissue-based
# [5] = system: Rattus norvegicus; experiment: Antithrombotic activity in Wistar rat model assessed as reduction of dry thrombus weight at 5 umol/kg after 15 mins; format: functional, organism-based
# [6] = system: Rattus norvegicus; experiment: (§1) Antiischemic activity in Wistar rat skeleton muscle assessed as protection against ischemic-reperfusion-induced irregular distribution of oxidative metabolism enzyme at 20 mg/kg, ip administered 15 minutes prior to induction of ischemia followed by administered 1 hr post reperfusion by using NADH staining by light microscopy analysis; format: functional, organism-based; set-up: dose 20 mg/kg; details: Muscle tissue
# [7] = system: Rattus norvegicus; experiment: Antiischemic activity against Wistar rat ischemic-reperfusion model assessed as wet/dry edema tissue ratio at 20 mg/kg, ip administered 15 minutes prior to induction of ischemia followed by administered 1 hr post reperfusion; format: functional
# [8] = system: Rattus norvegicus; experiment: Antiischemic activity against Wistar rat ischemic-reperfusion model assessed decrease in MDA level in plasma at 20 mg/kg, ip administered 15 minutes prior to induction of ischemia followed by administered 1 hr post reperfusion; format: functional, organism-based; set-up: dose 20 mg/kg
# [9] = system: Rattus norvegicus; experiment: Antiischemic activity against Wistar rat ischemic-reperfusion model assessed decrease in SOD level in plasma at 20 mg/kg, ip administered 15 minutes prior to induction of ischemia followed by administered 1 hr post reperfusion; format: functional, organism-based; set-up: dose 20 mg/kg
# [10] = system: Rattus norvegicus; experiment: Antiischemic activity against Wistar rat ischemic-reperfusion model assessed decrease in lipid peroxidation at 20 mg/kg, ip administered 15 minutes prior to induction of ischemia followed by administered 1 hr post reperfusion; format: functional, organism-based; set-up: dose 20 mg/kg
# [11] = system: Rattus norvegicus; experiment: as §1, with “necrotic and swollen cells” for “irregular distribution of oxidative metabolism enzyme”, “Gomori trichrome” for “NADH”; format: functional, organism-based; set-up: dose 20 mg/kg; details: Muscle tissue
# [12] = system: Rattus norvegicus; experiment: as §1, with “membrane ruptures with dissolution” for “irregular distribution”, “myofibrils” for “oxidative metabolism enzyme”, “Gomori trichrome” for “NADH”; format: functional, organism-based; set-up: dose 20 mg/kg; details: Muscle tissue
# [13] = system: Rattus norvegicus; experiment: as §1, with “interstitial edema” for “irregular distribution of oxidative metabolism enzyme”, “Gomori trichrome” for “NADH”; format: functional, organism-based; set-up: dose 20 mg/kg; details: Muscle tissue
# [14] = system: Rattus norvegicus; experiment: as §1, with “cell necrosis” for “irregular distribution of oxidative metabolism enzyme”, “hematoxylin-eosin” for “NADH”; format: functional, organism-based; set-up: dose 20 mg/kg; details: Muscle tissue
# [15] = system: Rattus norvegicus; experiment: as §1, with “muscle edema” for “irregular distribution of oxidative metabolism enzyme”, “hematoxylin-eosin” for “NADH”; format: functional, organism-based; set-up: dose 20 mg/kg; details: Muscle tissue
# [16] = system: Rattus norvegicus; experiment: as §1, with “neutrophil accumulation” for “irregular distribution of oxidative metabolism enzyme”, “hematoxylin-eosin” for “NADH”; format: functional, organism-based; set-up: dose 20 mg/kg; details: Muscle tissue
# [17] = system: Rattus norvegicus; experiment: as §1, with “ragged red fibrils formation” for “irregular distribution of oxidative metabolism enzyme”, “using modified” for “using”, “stain” for “staining”, “Light” for “light”; format: functional, organism-based; set-up: dose 20 mg/kg; details: Muscle tissue
# [18] = system: Rattus norvegicus; experiment: (§2) Antiischemic activity in Wistar rat myocardia assessed as protection against ischemic-reperfusion-induced edema between wavy muscle fibre and surrounding blood vessels at 20 mg/kg, ip administered 15 minutes prior to induction of ischemia followed by administered 1 hr post reperfusion by using hematoxylin-eosin stain by light microscopy analysis; format: functional, organism-based; set-up: dose 20 mg/kg
# [19] = system: Rattus norvegicus; experiment: as §2, with “pyknotic nuclei” for “edema between wavy muscle fibre and surrounding blood vessels”; format: functional, organism-based; set-up: dose 20 mg/kg
# [20] = system: Rattus norvegicus; experiment: as §2, with “contraction band” for “edema between wavy muscle fibre and surrounding blood vessels”; format: functional, organism-based; set-up: dose 20 mg/kg
# [21] = system: Rattus norvegicus; experiment: as §2, with “relaxed collagen” for “edema between wavy muscle”, “sourrounding indivisual myocardial tract” for “and surrounding blood vessels”, “modified gomori trichome” for “hematoxylin-eosin”; format: functional, organism-based; set-up: dose 20 mg/kg
# [22] = system: Rattus norvegicus; experiment: (§3) Antiischemic activity in Wistar rat myocardia assessed as protection against ischemic-reperfusion-induced tightly woven network of collagen and mild edema between fibre at 20 mg/kg, ip administered 15 minutes prior to induction of ischemia followed by administered 1 hr post reperfusion by using modified NADH stain by light microscopy analysis; format: functional, organism-based; set-up: dose 20 mg/kg
# [23] = system: Rattus norvegicus; experiment: as §3, with “gomori trichome staining” for “NADH stain”; format: functional, organism-based; set-up: dose 20 mg/kg
# [24] = system: Rattus norvegicus; experiment: as §3, with “edema” for “edema between fibre”, “hematoxylin-eosin” for “modified NADH”, “Light” for “light”; format: functional, organism-based; set-up: dose 20 mg/kg
SMILES,Wet thrombus weight [1] [mg],Activity [2],Activity [3],Activity [4],Activity [5] [mg],further results
CC(C)[C@H](NC(=O)[C@H](CC(=O)O)NC(=O)CNC(=O)[C@H](CCCNC(=N)N)NC(=O)COCC(=O)NCCOCCOCCOCCOCCOCCOCCOCCNC(=O)C1CC(C)(C)N([O])C(C)(C)C1)C(=O)O,24.7,Active,Active,Active,–,–
CC(C)[C@H](NC(=O)[C@H](CC(=O)O)NC(=O)CNC(=O)[C@H](CCCNC(=N)N)NC(=O)C1CC(C)(C)N([O])C(C)(C)C1)C(=O)O (X1-RGDV-OH),–,Active,Active,Active,25.1,–
CC1(C)CC(C(=O)NCCOCCOCCOCCOCCOCCOCCOCCNC(=O)COCC(=O)N[C@@H](CCCNC(=N)N)C(=O)NCC(=O)N[C@@H](CC(=O)O)C(=O)N[C@@H](Cc2ccccc2)C(=O)O)CC(C)(C)N1[O],20.7,Active,Active,Active,–,Activity [6]: Active; Ratio [7]: 3.45; Activity [8]: Active; Activity [9]: Active; Activity [10]: Active; Activity [11]: Active; Activity [12]: Active; Activity [13]: Active; Activity [14]: Active; Activity [15]: Active; Activity [16]: Active; Activity [17]: Active; Activity [18]: Active; Activity [19]: Active; Activity [20]: Active; Activity [21]: Active; Activity [22]: Active; Activity [23]: Active; Activity [24]: Active
CC1(C)CC(C(=O)NCCOCCOCCOCCOCCOCCOCCOCCNC(=O)COCC(=O)N[C@@H](CCCNC(=N)N)C(=O)NCC(=O)N[C@@H](CC(=O)O)C(=O)N[C@@H](CO)C(=O)O)CC(C)(C)N1[O],23.6,Active,Active,Active,–,–
CC(=O)Oc1ccccc1C(=O)O [ASPIRIN],–,–,–,–,–,Activity [1]: 27.6 mg
CC1(C)CC(O)CC(C)(C)N1[O] [TEMPOL],–,–,–,Active,–,Ratio ([7]; route intraperitoneal): 4.49
CC1(C)CC(C(=O)N[C@@H](CCCNC(=N)N)C(=O)NCC(=O)N[C@@H](CC(=O)O)C(=O)N[C@@H](Cc2ccccc2)C(=O)O)CC(C)(C)N1[O] (X1-RGDF-OH),–,Active,Active,Active,22.3,–
CC1(C)CC(C(=O)N[C@@H](CCCNC(=N)N)C(=O)NCC(=O)N[C@@H](CC(=O)O)C(=O)N[C@@H](CO)C(=O)O)CC(C)(C)N1[O] (X1-RGDS-OH),–,Active,Active,Active,25.9,–

# — ChEMBL document CHEMBL2176945, “Novel TEMPO-PEG-RGDs conjugates remediate tissue damage induced by acute limb ischemia/reperfusion” (2012)
